# Reference: PubChem BioAssay AID328 (DTP/NCI, 2004)
# Where “and” joins values, the source holds several entries; their conditions need not be identical. Equal entries are not always repeated. Inconclusive results and toxic doses are left out.
# Tested on: BDF1 mice, P388 leukemia ip, median survival T/C
# Assay: NCI In Vivo Anticancer Drug Screen. Data for tumor model P388 Leukemia (intraperitoneal) in B6D2F1 (BDF1) mice
# Details: endpoint: median survival time, higher = longer survival
# Outline: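 Vehicle-dosed animals serve as the reference; survival of compound-dosed, tumour-implanted mice is divided by it.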
# [1] = dose: 50.0 mg/kg/injection, schedule: Q01DX009 (ip), vehicle: Klucel (hydroxypropylcellulose) (HPC)
# [2] = dose: 100.0 mg/kg/injection, schedule: Q01DX009 (ip), vehicle: Klucel (hydroxypropylcellulose) (HPC)
# [3] = dose: 200.0 mg/kg/injection, schedule: Q01DX009 (ip), vehicle: Klucel (hydroxypropylcellulose) (HPC)
# [4] = dose: 400.0 mg/kg/injection, schedule: Q01DX009 (ip), vehicle: Klucel (hydroxypropylcellulose) (HPC)
# [5] = dose: 25.0 mg/kg/injection, schedule: Q01DX009 (ip), vehicle: saline with Tween-80
# [6] = dose: 50.0 mg/kg/injection, schedule: Q01DX009 (ip), vehicle: saline with Tween-80
# [7] = dose: 100.0 mg/kg/injection, schedule: Q01DX009 (ip), vehicle: saline with Tween-80
# [8] = dose: 200.0 mg/kg/injection, schedule: Q01DX009 (ip), vehicle: saline with Tween-80
# [9] = dose: 12.5 mg/kg/injection, schedule: Q01DX009 (ip), vehicle: saline with Tween-80
# [10] = dose: 25.0 mg/kg/injection, schedule: Q01DX009 (ip), vehicle: Klucel (hydroxypropylcellulose) (HPC)
# [11] = dose: 100.0 mg/kg/injection, schedule: Q04DX003 (ip), vehicle: Klucel (hydroxypropylcellulose) (HPC)
# [12] = dose: 100.0 mg/kg/injection, schedule: Q04DX003 (ip), vehicle: saline with Tween-80
# [13] = dose: 200.0 mg/kg/injection, schedule: Q04DX003 (ip), vehicle: saline with Tween-80
# [14] = dose: 400.0 mg/kg/injection, schedule: Q04DX003 (ip), vehicle: saline with Tween-80
# [15] = dose: 200.0 mg/kg/injection, schedule: Q04DX003 (ip), vehicle: Klucel (hydroxypropylcellulose) (HPC)
# [16] = dose: 400.0 mg/kg/injection, schedule: Q04DX003 (ip), vehicle: Klucel (hydroxypropylcellulose) (HPC)
# [17] = dose: 6.25 mg/kg/injection, schedule: Q01DX009 (ip), vehicle: water
# [18] = dose: 12.5 mg/kg/injection, schedule: Q01DX009 (ip), vehicle: water
# [19] = dose: 25.0 mg/kg/injection, schedule: Q01DX009 (ip), vehicle: water
# [20] = dose: 25.0 mg/kg/injection, schedule: Q04DX003 (ip), vehicle: water
# [21] = dose: 50.0 mg/kg/injection, schedule: Q01DX009 (ip), vehicle: water
# [22] = dose: 400.0 mg/kg/injection, schedule: Q01DX009 (ip), vehicle: saline with Tween-80
compound,measurement,setting,value
COC(=O)C(c1ccccc1)C(CC(=O)c1ccccc1)c1ccccc1 (stereo not drawn),T/C,[1],86 % of control
same,T/C,[2],89 % of control and 99 % of control
same,T/C,[3],92 % of control and 101 % of control
same,T/C,[4],97 % of control
O=C1O/C(=C2\OCc3ccccc32)c2ccccc21,T/C,[5],100 % of control
same,T/C,[6],98 % of control
same,T/C,[7],98 % of control
same,T/C,[8],96 % of control
O=C1CC(c2ccc(Br)cc2)N(c2ccc([As](=O)(O)O)cc2)C1=O (stereo not drawn),T/C,"dose: 3.13 mg/kg/injection, schedule: Q01DX009 (ip), vehicle: saline with Tween-80",90 % of control
same,T/C,"dose: 6.25 mg/kg/injection, schedule: Q01DX009 (ip), vehicle: saline with Tween-80",109 % of control
same,T/C,[9],109 % of control
COc1ccc(N=O)c(O)c1,T/C,[10],100 % of control and 109 % of control
same,T/C,"dose: 25.0 mg/kg/injection, schedule: Q01DX010 (ip), vehicle: carboxymethylcellulose (CMC)",110 % of control
same,T/C,"dose: 25.0 mg/kg/injection, schedule: Q04DX003 (ip), vehicle: Klucel (hydroxypropylcellulose) (HPC)",115 % of control
same,T/C,[1],100 % of control and 109 % of control
same,T/C,"dose: 50.0 mg/kg/injection, schedule: Q01DX010 (ip), vehicle: carboxymethylcellulose (CMC)",115 % of control
same,T/C,"dose: 50.0 mg/kg/injection, schedule: Q04DX003 (ip), vehicle: Klucel (hydroxypropylcellulose) (HPC)",110 % of control
same,T/C,[2],113 % of control and 118 % of control
same,T/C,[11],110 % of control
COc1cc(C=Nc2ccc(-n3ccnc3C)cc2)ccc1N(CCCl)CCCl,T/C,"dose: 5.0 mg/kg/injection, schedule: Q01DX009 (ip), vehicle: Klucel (hydroxypropylcellulose) (HPC)",157 % of control
same,T/C,"dose: 7.5 mg/kg/injection, schedule: Q01DX009 (ip), vehicle: Klucel (hydroxypropylcellulose) (HPC)",162 % of control
Clc1ccc2c(c1)Nc1cc(Cl)ccc1C=C2,T/C,"dose: 75.0 mg/kg/injection, schedule: Q01DX001 (ip), vehicle: saline with Tween-80",91 % of control
same,T/C,"dose: 150.0 mg/kg/injection, schedule: Q01DX001 (ip), vehicle: saline with Tween-80",100 % of control
same,T/C,"dose: 300.0 mg/kg/injection, schedule: Q01DX001 (ip), vehicle: saline with Tween-80",100 % of control
Br/C(=N\Nc1nn[nH]n1)c1ccccc1,T/C,[12],87 % of control
same,T/C,[13],91 % of control
same,T/C,[14],91 % of control
OCC1CC1c1ccccc1 (stereo not drawn),T/C,[6],101 % of control
same,T/C,[7],102 % of control
same,T/C,[8],109 % of control
Nc1ncnc2c1ncn2C1CC(CO)C(O)C1O (stereo not drawn),T/C,"dose: 6.25 mg/kg/injection, schedule: Q01DX009 (ip), vehicle: carboxymethylcellulose (CMC)",100 % of control
same,T/C,"dose: 12.5 mg/kg/injection, schedule: Q01DX009 (ip), vehicle: carboxymethylcellulose (CMC)",95 % of control
n1nc(Nc2nn[nH]n2)n[nH]1,T/C,[1],90 % of control
same,T/C,[2],107 % of control
same,T/C,[3],110 % of control
Nc1nnc2cc(F)ccc2n1,T/C,[1],100 % of control
same,T/C,[2],112 % of control
same,T/C,[3],102 % of control
CC[C@H](CC[C@@H](C)[C@H]1CC[C@H]2[C@@H]3CC=C4C[C@@H](O)CC[C@]4(C)[C@H]3CC[C@]12C)C(C)C,T/C,[11],100 % of control
same,T/C,[15],86 % of control
same,T/C,[16],100 % of control
CNC(=S)N/N=C(/C)CCc1c(C)nn(C(=S)NC)c1C,T/C,"dose: 150.0 mg/kg/injection, schedule: Q04DX003 (ip), vehicle: Klucel (hydroxypropylcellulose) (HPC)",112 % of control
same,T/C,"dose: 225.0 mg/kg/injection, schedule: Q04DX003 (ip), vehicle: Klucel (hydroxypropylcellulose) (HPC)",112 % of control
same,T/C,"dose: 335.0 mg/kg/injection, schedule: Q04DX003 (ip), vehicle: Klucel (hydroxypropylcellulose) (HPC)",108 % of control
CC1CN(Cc2cccc(C#N)c2)CC(C)N1 (stereo not drawn),T/C,[17],95 % of control
same,T/C,[18],110 % of control
same,T/C,[19],101 % of control
same,T/C,[20],101 % of control
same,T/C,[21],95 % of control
same,T/C,"dose: 50.0 mg/kg/injection, schedule: Q04DX003 (ip), vehicle: water",100 % of control
same,T/C,"dose: 100.0 mg/kg/injection, schedule: Q01DX009 (ip), vehicle: water",110 % of control
same,T/C,"dose: 100.0 mg/kg/injection, schedule: Q04DX003 (ip), vehicle: water",111 % of control
CC1(c2ccc(-c3ccccc3)cc2)NC(=O)NC1=O (stereo not drawn),T/C,[7],91 % of control
same,T/C,[8],95 % of control
same,T/C,[22],88 % of control
BrC1CC(Br)c2c1c1c(c3c2C(Br)CC3Br)C(Br)CC1Br (stereo not drawn),T/C,[8],90 % of control
O=C(O)C(c1ccccc1)C1CCCC1 (stereo not drawn),T/C,[6],100 % of control
same,T/C,[7],95 % of control
same,T/C,[8],109 % of control
CC1(C)CC(C(N)=O)C(C)(C)N1O (stereo not drawn),T/C,"dose: 100.0 mg/kg/injection, schedule: Q01DX001 (ip), vehicle: saline",109 % of control
same,T/C,"dose: 200.0 mg/kg/injection, schedule: Q01DX001 (ip), vehicle: saline",86 % of control
same,T/C,"dose: 400.0 mg/kg/injection, schedule: Q01DX001 (ip), vehicle: saline",100 % of control
CC1NC(C(=O)O)Cc2cc(O)c(O)cc21 (stereo not drawn),T/C,"dose: 12.5 mg/kg/injection, schedule: Q01DX009 (ip), vehicle: Klucel (hydroxypropylcellulose) (HPC)",109 % of control
same,T/C,[10],109 % of control
same,T/C,[1],92 % of control and 99 % of control
same,T/C,[2],101 % of control
c1cc2c(cc1C1SCSCS1)OCO2,T/C,[11],90 % of control
same,T/C,[15],100 % of control
same,T/C,[16],100 % of control
c1ccc(-c2cc[s+]s2)cc1,T/C,"dose: 3.12 mg/kg/injection, schedule: Q01DX009 (ip), vehicle: water",110 % of control and 114 % of control
same,T/C,[17],94 % of control and 103 % of control and 120 % of control
same,T/C,[18],100 % of control and 103 % of control and 123 % of control
same,T/C,"dose: 12.5 mg/kg/injection, schedule: Q04DX003 (ip), vehicle: water",116 % of control
same,T/C,[19],100 % of control
same,T/C,[20],104 % of control
same,T/C,[21],92 % of control and 116 % of control
same,T/C,"dose: 200.0 mg/kg/injection, schedule: Q04DX003 (ip), vehicle: water",101 % of control
CCOC(=O)C1(C(=O)O)CC2C(C)C=CC(C)C2C1 (stereo not drawn),T/C,[2],95 % of control
same,T/C,[3],110 % of control
same,T/C,[4],100 % of control
Nc1ncnc2[nH]c(=O)[nH]c12,T/C,[9],104 % of control
same,T/C,[5],109 % of control
same,T/C,[13],104 % of control
same,T/C,[14],114 % of control
O=C(Cn1ccc(O)cc1=O)c1ccc(Cl)s1,T/C,[7],98 % of control
same,T/C,[8],93 % of control
same,T/C,[22],104 % of control
O=c1c[n+](-c2ccccc2)[nH]o1,T/C,[2],115 % of control
same,T/C,[3],90 % of control
O=C(NC(NC(=O)c1ccc(Cl)cc1)C(Cl)(Cl)Cl)c1ccc(Cl)cc1,T/C,"dose: 25.0 mg/kg/injection, schedule: Q04DX003 (ip), vehicle: saline with Tween-80",90 % of control
same,T/C,"dose: 50.0 mg/kg/injection, schedule: Q04DX003 (ip), vehicle: saline with Tween-80",86 % of control
same,T/C,[12],90 % of control
Clc1nc(Cl)nc(-c2cccn2-c2ccccc2)n1,T/C,[10],100 % of control
same,T/C,[1],100 % of control
same,T/C,[2],104 % of control
same,T/C,"dose: 150.0 mg/kg/injection, schedule: Q01DX009 (ip), vehicle: Klucel (hydroxypropylcellulose) (HPC)",105 % of control
same,T/C,"dose: 225.0 mg/kg/injection, schedule: Q01DX009 (ip), vehicle: Klucel (hydroxypropylcellulose) (HPC)",95 % of control
CCCCCCCCC(=O)c1c(OC)oc(/C=N/O)cc1=O,T/C,"dose: 1.56 mg/kg/injection, schedule: Q01DX009 (ip), vehicle: Klucel (hydroxypropylcellulose) (HPC)",94 % of control
same,T/C,"dose: 3.13 mg/kg/injection, schedule: Q01DX009 (ip), vehicle: Klucel (hydroxypropylcellulose) (HPC)",107 % of control
same,T/C,"dose: 6.25 mg/kg/injection, schedule: Q01DX009 (ip), vehicle: Klucel (hydroxypropylcellulose) (HPC)",97 % of control
[O-][n+]1c(/C=C/c2cccc3ccccc23)cccc1/C=C/c1cccc2ccccc12,T/C,"dose: 50.0 mg/kg/injection, schedule: Q01DX005 (ip), vehicle: saline + Tween-80 + alcohol",94 % of control
same,T/C,"dose: 100.0 mg/kg/injection, schedule: Q01DX005 (ip), vehicle: saline + Tween-80 + alcohol",96 % of control
same,T/C,"dose: 200.0 mg/kg/injection, schedule: Q01DX005 (ip), vehicle: saline + Tween-80 + alcohol",96 % of control
